Test results taken from patent US11071300B2, “Pesticidally active pyrazole derivatives” (SYNGENTA PARTICIPATIONS AG, priority 2017, dated 2021).

Legend:
Type in all cases: in vivo
Spodoptera littoralis = Spodoptera littoralis (Egyptian cotton leaf worm) leaf disc test; conditions: foliar, 72 h, application rate 200 ppm, cotton leaf discs sprayed, L1 larvae, 3 days after infestation, read-out: control (at least one of mortality, anti-feedant effect, growth inhibition)
Summary of the method: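 Five first-instar larvae per disc were placed on dried, sprayed cotton leaf discs held on agar. Test solutions were aqueous, made from 10′000 ppm DMSO stocks. At day 3, control was counted when mortality, feeding deterrence or growth inhibition exceeded the untreated discs.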

Euschistus heros = Euschistus heros (neotropical brown stink bug) soybean leaf test; conditions: 120 h, application rate 200 ppm, soybean leaves sprayed, N2 nymphs, 5 days after infestation, read-out: control (mortality and growth inhibition)
Protocol: Euschistus heros (Neotropical Brown Stink Bug):
Soybean leaves on agar in 24-well microtiter plates were sprayed with aqueous test solutions prepared from 10′000 ppm DMSO stock solutions. After drying the leaves were infested with N2 nymphs. The samples were assessed for mortality and growth inhibition in comparison to untreated samples 5 days after infestation.

Plutella xylostella = Plutella xylostella (diamond back moth) artificial diet test; conditions: 120 h, application rate 200 ppm, artificial diet, L2 larvae, 5 days after infestation, read-out: control (mortality and growth inhibition)
Protocol: Plutella xylostella (Diamond Back Moth):
24-well microtiter plates with artificial diet were treated with aqueous test solutions prepared from 10′000 ppm DMSO stock solutions by pipetting. After drying, the plates were infested with L2 larvae (10 to 15 per well). The samples were assessed for mortality and growth inhibition in comparison to untreated samples 5 days after infestation.

Myzus persicae = Myzus persicae (green peach aphid) leaf disc test; conditions: foliar, 144 h, application rate 200 ppm, sunflower leaf discs sprayed, mixed ages, 6 DAT, read-out: control (mortality)
Protocol: Myzus persicae (Green Peach Aphid):
Sunflower leaf discs were placed on agar in a 24-well microtiter plate and sprayed with test solutions at an application rate of 200 ppm. After drying, the leaf discs were infested with an aphid population of mixed ages. After an incubation period of 6 DAT, samples were checked for mortality.

Tetranychus urticae = Tetranychus urticae (two-spotted spider mite) leaf disc test; conditions: foliar, 192 h, application rate 200 ppm, bean leaf discs sprayed, 8 days after infestation, read-out: control (mortality on mixed population, mobile stages)
Protocol: Tetranychus urticae (Two-Spotted Spider Mite):
Bean leaf discs on agar in 24-well microtiter plates were sprayed with aqueous test solutions prepared from 10′000 ppm DMSO stock solutions. After drying the leaf discs were infested with a mite population of mixed ages. The samples were assessed for mortality on mixed population (mobile stages) 8 days after infestation.

Diabrotica Balteata = test: Diabrotica balteata (corn root worm) maize sprout test; conditions: 96 h, application rate 200 ppm, maize sprouts sprayed, L2 larvae, 4 days after infestation, read-out: control (mortality and growth inhibition)
Protocol: Diabrotica Balteata, (Corn Root Worm)
Maize sprouts, placed on an agar layer in 24-well microtiter plates were treated with aqueous test solutions prepared from 10′000 ppm DMSO stock solutions by spraying. After drying, the plates were infested with L2 larvae (6 to 10 per well). The samples were assessed for mortality and growth inhibition in comparison to untreated samples 4 days after infestation.

Thrips tabaci = Thrips tabaci (onion thrips) leaf disc test; conditions: foliar, 144 h, application rate 200 ppm, sunflower leaf discs sprayed, mixed ages, 6 days after infestation, read-out: control (mortality)
Protocol: Thrips tabaci (Onion Thrips):
Sunflower leaf discs were placed on agar in 24-well microtiter plates and sprayed with aqueous test solutions prepared from 10′000 ppm DMSO stock solutions. After drying the leaf discs were infested with a thrips population of mixed ages. The samples were assessed for mortality 6 days after infestation.

Cn1nc(OS(=O)(=O)C(F)(C(F)(F)F)C(F)(F)F)c(C(F)(F)F)c1-n1cc(-c2ccc(Cl)c(C(=O)N[C@H]3C[C@@H]3C#N)c2)cn1 (racemic) [Compound 69, (rac)-[5-[4-[4-chloro-3-[[(1S,2S)-2-cyanocyclopropyl]carbamoyl]phenyl]pyrazol-1-yl]-1-methyl-4-(trifluoromethyl)pyrazol-3-yl] 1,1,1,2,3,3,3-heptafluoropropane-2-sulfonate]
≥ 80%: percent control (mortality, anti-feedant effect or growth inhibition) at 200 ppm (Spodoptera littoralis) | mortality at 200 ppm (Euschistus heros) | mortality at 200 ppm (Plutella xylostella) | mortality at 200 ppm (Myzus persicae) | mortality at 200 ppm (Tetranychus urticae)

Cn1nc(OS(=O)(=O)C(F)(F)C(F)(F)F)c(C(F)(F)F)c1-n1cc(-c2ccc(Cl)c(C(=O)NC3(C#N)CC3)c2)cn1 [Compound 1, [5-[4-[4-chloro-3-[(1-cyanocyclopropyl)carbamoyl]phenyl]pyrazol-1-yl]-1-methyl-4-(trifluoromethyl)pyrazol-3-yl] 1,1,2,2,2-pentafluoroethanesulfonate]
≥ 80%: percent control (mortality, anti-feedant effect or growth inhibition) at 200 ppm (Spodoptera littoralis) | mortality at 200 ppm (Euschistus heros) | mortality at 200 ppm (Plutella xylostella) | mortality at 200 ppm (Diabrotica Balteata) | mortality at 200 ppm (Tetranychus urticae)

Cn1nc(OS(=O)(=O)C(F)(C(F)(F)F)C(F)(F)F)c(C(F)(F)F)c1-n1cc(-c2ccc(Cl)c(C(=O)NC3(C#N)CC3)c2)cn1 [Compound 2, [5-[4-[4-chloro-3-[(1-cyanocyclopropyl)carbamoyl]phenyl]pyrazol-1-yl]-1-methyl-4-(trifluoromethyl)pyrazol-3-yl] 1,1,1,2,3,3,3-heptafluoropropane-2-sulfonate]
≥ 80%: percent control (mortality, anti-feedant effect or growth inhibition) at 200 ppm (Spodoptera littoralis) | mortality at 200 ppm (Euschistus heros) | mortality at 200 ppm (Plutella xylostella) | mortality at 200 ppm (Thrips tabaci) | mortality at 200 ppm (Myzus persicae) | mortality at 200 ppm (Diabrotica Balteata) | mortality at 200 ppm (Tetranychus urticae)

Cn1nc(OS(=O)(=O)C(F)(C(F)(F)F)C(F)(F)F)c(C(F)(F)F)c1-n1cc(-c2ccc(Cl)c(C(=O)NC3CC3)c2)cn1 [Compound 5, [5-[4-[4-chloro-3-(cyclopropylcarbamoyl)phenyl]pyrazol-1-yl]-1-methyl-4-(trifluoromethyl)pyrazol-3-yl] 1,1,1,2,3,3,3-heptafluoropropane-2-sulfonate]
≥ 80%: percent control (mortality, anti-feedant effect or growth inhibition) at 200 ppm (Spodoptera littoralis) | mortality at 200 ppm (Euschistus heros) | mortality at 200 ppm (Plutella xylostella) | mortality at 200 ppm (Thrips tabaci) | mortality at 200 ppm (Myzus persicae) | mortality at 200 ppm (Diabrotica Balteata) | mortality at 200 ppm (Tetranychus urticae)

Cn1nc(OS(=O)(=O)C(F)(F)C(F)(F)Cl)c(C(F)(F)F)c1-n1cc(-c2ccc(Cl)c(C(=O)NC3CC3)c2)cn1 [Compound 9, [5-[4-[4-chloro-3-(cyclopropylcarbamoyl)phenyl]pyrazol-1-yl]-1-methyl-4-(trifluoromethyl)pyrazol-3-yl] 2-chloro-1,1,2,2-tetrafluoro-ethanesulfonate]
≥ 80%: percent control (mortality, anti-feedant effect or growth inhibition) at 200 ppm (Spodoptera littoralis) | mortality at 200 ppm (Euschistus heros) | mortality at 200 ppm (Plutella xylostella) | mortality at 200 ppm (Thrips tabaci) | mortality at 200 ppm (Myzus persicae) | mortality at 200 ppm (Diabrotica Balteata) | mortality at 200 ppm (Tetranychus urticae)

CCN(C(=O)c1cc(-c2cnn(-c3c(C(F)(F)F)c(OS(=O)(=O)C(F)(C(F)(F)F)C(F)(F)F)nn3C)c2)ccc1Cl)C1CC1 [Compound 12, [5-[4-[4-chloro-3-[cyclopropyl(ethyl)carbamoyl]phenyl]pyrazol-1-yl]-1-methyl-4-(trifluoromethyl)pyrazol-3-yl] 1,1,1,2,3,3,3-heptafluoropropane-2-sulfonate]
≥ 80%: percent control (mortality, anti-feedant effect or growth inhibition) at 200 ppm (Spodoptera littoralis) | mortality at 200 ppm (Euschistus heros) | mortality at 200 ppm (Plutella xylostella) | mortality at 200 ppm (Thrips tabaci) | mortality at 200 ppm (Myzus persicae) | mortality at 200 ppm (Diabrotica Balteata) | mortality at 200 ppm (Tetranychus urticae)

CN(C(=O)c1cc(-c2cnn(-c3c(C(F)(F)F)c(OS(=O)(=O)C(F)(C(F)(F)F)C(F)(F)F)nn3C)c2)ccc1Cl)C1(C#N)CC1 [Compound 18, [5-[4-[4-chloro-3-[(1-cyanocyclopropyl)-methyl-carbamoyl]phenyl]pyrazol-1-yl]-1-methyl-4-(trifluoromethyl)pyrazol-3-yl] 1,1,1,2,3,3,3-heptafluoropropane-2-sulfonate]
≥ 80%: percent control (mortality, anti-feedant effect or growth inhibition) at 200 ppm (Spodoptera littoralis) | mortality at 200 ppm (Euschistus heros) | mortality at 200 ppm (Plutella xylostella) | mortality at 200 ppm (Thrips tabaci) | mortality at 200 ppm (Myzus persicae) | mortality at 200 ppm (Diabrotica Balteata) | mortality at 200 ppm (Tetranychus urticae)

Cn1nc(OS(=O)(=O)C(F)(C(F)(F)F)C(F)(F)F)c(C(F)(F)F)c1-n1cc(-c2cnc(Cl)c(C(=O)NC3CC3)c2)cn1 [Compound 21, [5-[4-[6-chloro-5-(cyclopropylcarbamoyl)-3-pyridyl]pyrazol-1-yl]-1-methyl-4-(trifluoromethyl)pyrazol-3-yl] 1,1,1,2,3,3,3-heptafluoropropane-2-sulfonate]
≥ 80%: percent control (mortality, anti-feedant effect or growth inhibition) at 200 ppm (Spodoptera littoralis) | mortality at 200 ppm (Euschistus heros) | mortality at 200 ppm (Plutella xylostella) | mortality at 200 ppm (Thrips tabaci) | mortality at 200 ppm (Myzus persicae) | mortality at 200 ppm (Diabrotica Balteata) | mortality at 200 ppm (Tetranychus urticae)

CN(C(=O)c1cc(-c2cnn(-c3c(C(F)(F)F)c(OS(=O)(=O)C(F)(C(F)(F)F)C(F)(F)F)nn3C)c2)cnc1Cl)C1(C#N)CC1 [Compound 25, [5-[4-[6-chloro-5-[(1-cyanocyclopropyl)-methyl-carbamoyl]-3-pyridyl]pyrazol-1-yl]-1-methyl-4-(trifluoromethyl)pyrazol-3-yl] 1,1,1,2,3,3,3-heptafluoropropane-2-sulfonate]
≥ 80%: percent control (mortality, anti-feedant effect or growth inhibition) at 200 ppm (Spodoptera littoralis) | mortality at 200 ppm (Euschistus heros) | mortality at 200 ppm (Plutella xylostella) | mortality at 200 ppm (Thrips tabaci) | mortality at 200 ppm (Myzus persicae) | mortality at 200 ppm (Diabrotica Balteata) | mortality at 200 ppm (Tetranychus urticae)

CCN(C(=O)c1cc(-c2cc(-c3c(C(F)(F)F)c(OS(=O)(=O)C(F)(C(F)(F)F)C(F)(F)F)nn3C)no2)ccc1Cl)C1(C#N)CC1 [Compound 38, [5-[5-[4-chloro-3-[(1-cyanocyclopropyl)-ethyl-carbamoyl]phenyl]isoxazol-3-yl]-1-methyl-4-(trifluoromethyl)pyrazol-3-yl] 1,1,1,2,3,3,3-heptafluoropropane-2-sulfonate]
≥ 80%: percent control (mortality, anti-feedant effect or growth inhibition) at 200 ppm (Spodoptera littoralis) | mortality at 200 ppm (Euschistus heros) | mortality at 200 ppm (Plutella xylostella) | mortality at 200 ppm (Myzus persicae) | mortality at 200 ppm (Tetranychus urticae)

CCOCN(C(=O)c1cc(-c2cnn(-c3c(C(F)(F)F)c(OS(=O)(=O)C(F)(C(F)(F)F)C(F)(F)F)nn3C)c2)ccc1Cl)C1(C#N)CC1 [Compound 47, [5-[4-[4-chloro-3-[(1-cyanocyclopropyl)-(ethoxymethyl)carbamoyl]phenyl]pyrazol-1-yl]-1-methyl-4-(trifluoromethyl)pyrazol-3-yl] 1,1,1,2,3,3,3-heptafluoropropane-2-sulfonate]
≥ 80%: percent control (mortality, anti-feedant effect or growth inhibition) at 200 ppm (Spodoptera littoralis) | mortality at 200 ppm (Euschistus heros) | mortality at 200 ppm (Plutella xylostella) | mortality at 200 ppm (Thrips tabaci) | mortality at 200 ppm (Myzus persicae) | mortality at 200 ppm (Diabrotica Balteata)
